Patent US9062041B2 (Bayer Intellectual Property GmbH, priority 2011, dated 2015)

How the values were obtained:
Format in all cases: cell-based
[1] = molecular target: EP2 subtype of the human PGE2 receptor (Homo sapiens, UniProt P43116); test: cAMP antagonism test on the human EP2 receptor (HTRF cAMP detection); settings: hEP2 receptor, read-out: Antagonism hEP2 IC50
Procedure, shortened: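 Cells expressing human EP2 preincubated 20 min at RT with compound (0.8 nM–16.5 μM), then stimulated 60 min with PGE2 (3× solution 1.5 nM) in PBS-IBMX. After 20 min lysis, cAMP measured by competitive HTRF with cAMP-d2 and Eu cryptate anti-cAMP antibody (665/620 nm ratio).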

[2] = molecular target: EP4 subtype of the human PGE2 receptor (Homo sapiens, UniProt P35408); test: cAMP antagonism test on the human EP4 receptor (HTRF cAMP detection); settings: selectivity towards hEP4, IC50 measured by cAMP antagonism test
Procedure, shortened: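 Cells expressing human EP4 preincubated 20 min at RT with compound (0.8 nM–16.5 μM), then stimulated with PGE2 (0.3 nM in 3× solution, with IBMX) 60 min at RT. After lysis, cAMP measured by HTRF competition (665/620 nm ratio); antagonism seen as rise in FRET signal.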

[3] = molecular target: T1, human PGD receptor (Homo sapiens, UniProt Q13258); test: cAMP antagonism test on the human prostaglandin D receptor (HTRF cAMP detection); settings: selectivity towards hDP, IC50 measured by cAMP antagonism test
T1 sequence (Q13258 1-359): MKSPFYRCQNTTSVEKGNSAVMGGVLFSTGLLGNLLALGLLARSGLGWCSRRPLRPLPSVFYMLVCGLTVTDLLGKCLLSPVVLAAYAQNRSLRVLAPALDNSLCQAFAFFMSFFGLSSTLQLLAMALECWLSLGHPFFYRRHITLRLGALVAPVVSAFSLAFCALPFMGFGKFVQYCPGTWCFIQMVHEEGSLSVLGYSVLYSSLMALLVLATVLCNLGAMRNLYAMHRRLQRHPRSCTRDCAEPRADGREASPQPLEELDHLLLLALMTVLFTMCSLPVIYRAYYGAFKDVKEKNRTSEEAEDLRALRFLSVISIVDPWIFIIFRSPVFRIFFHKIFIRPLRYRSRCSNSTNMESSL
Procedure, shortened: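 Cells pre-mixed with cAMP-d2 were preincubated with compound (0.8 nM–16.5 μM) for 20 min at RT, then stimulated with 3× PGD2 solution (6 nM, in PBS-IBMX) for 30 min at RT. After lysis (20 min), HTRF read at 665/620 nm; antagonism seen as rise in FRET ratio.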

Chain of EP4 subtype of the human PGE2 receptor (P35408 whole entry): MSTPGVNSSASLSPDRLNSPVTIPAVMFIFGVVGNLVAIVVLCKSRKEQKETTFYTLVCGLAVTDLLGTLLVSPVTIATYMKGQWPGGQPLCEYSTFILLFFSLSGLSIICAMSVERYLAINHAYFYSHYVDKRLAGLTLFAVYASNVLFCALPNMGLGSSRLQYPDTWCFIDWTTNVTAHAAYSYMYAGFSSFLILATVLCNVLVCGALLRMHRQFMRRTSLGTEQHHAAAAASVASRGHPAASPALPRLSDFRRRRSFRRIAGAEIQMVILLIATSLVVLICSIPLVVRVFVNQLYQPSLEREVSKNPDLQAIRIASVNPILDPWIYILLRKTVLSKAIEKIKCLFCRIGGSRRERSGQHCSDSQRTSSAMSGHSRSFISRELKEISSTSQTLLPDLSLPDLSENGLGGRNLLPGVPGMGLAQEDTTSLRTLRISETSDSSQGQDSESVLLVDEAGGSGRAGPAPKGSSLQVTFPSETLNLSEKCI
Chain of EP2 subtype of the human PGE2 receptor (P43116 whole entry): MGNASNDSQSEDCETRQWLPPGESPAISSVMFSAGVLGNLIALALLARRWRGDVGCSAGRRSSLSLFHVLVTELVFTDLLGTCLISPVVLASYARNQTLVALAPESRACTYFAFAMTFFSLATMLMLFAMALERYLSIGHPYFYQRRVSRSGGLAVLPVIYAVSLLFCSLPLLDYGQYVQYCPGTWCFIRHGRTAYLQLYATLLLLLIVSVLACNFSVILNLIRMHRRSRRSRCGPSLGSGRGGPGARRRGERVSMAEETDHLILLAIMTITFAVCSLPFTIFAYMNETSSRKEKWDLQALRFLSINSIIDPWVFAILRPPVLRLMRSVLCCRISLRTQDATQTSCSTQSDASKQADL

| Compound | IC50 [1] [nM] | Selectivity hEP2/hEP4 [2] | Selectivity hEP2/hDP [3] |
| --- | --- | --- | --- |
| Cc1c(C(=O)NCCOCC2CC2)ccc2nn(CC3CCN(C(=O)c4ccc(C(F)(F)F)cc4)CC3)cc12 [Example 87, N-[2-(cyclopropyl-methoxy)ethyl]-4-methyl-2-({l-[4-(tri-fluoromethyl)benzoyl]piperidin-4-yl}-methyl)-2H-indazol-5-carboxamide] | 24 | xxx (xxx > 100) | xxx (xxx > 100) |
| Cc1c(C(=O)NCC2CCCCO2)ccc2nn(CC3CCN(C(=O)c4ccc(Cl)cc4)CC3)cc12 (single isomer, unassigned) [Example 240, (R or S)-2-{[1-(4-chlorobenzoyl)piperidin-4-yl]methyl}-4-methyl-N-(3,4,5,6-tetrahydro-2H-pyran-2-ylmethyl)-2H-indazol-5-carboxamide] | 25.1 | xxx (xxx > 100) | xxx (xxx > 100) |
| Cc1c(C(=O)NCCN2CCOCC2)ccc2nn(CC3CCN(C(=O)c4cccc(S(F)(F)(F)(F)F)c4)CC3)cc12 [Example 64] | 4130 | x (x: 1-10) | x (x: 1-10) |
| Cc1c(C(=O)NCC(F)(F)F)ccc2nn(CC3CCN(C(=O)c4nc5ccccc5s4)CC3)cc12 [Example 302, 2-{[1-(benzothiazol-2-ylcarbonyl)piperidin-4-yl]methyl}-4-methyl-N-(2,2,2-trifluoroethyl)-2H-indazol-5-carboxamide] | 131 | xxx (xxx > 100) | xxx (xxx > 100) |
| COCCNC(=O)c1ccc2nn(CC3CCN(C(=O)c4ccc(C)cc4F)CC3)cc2c1C [Example 9, 2-{[1-(2-fluoro-4-methylbenzoyl)piperidin-4-yl]methyl}-N-(2-methoxyethyl)-4-methyl-2H-indazol-5-carboxamide] | 17.2 | xxx (xxx > 100) | xxx (xxx > 100) |
| COCCNC(=O)c1ccc2nn(CC3CCN(C(=O)c4ccc(-c5ccc(OC)nc5)cc4)CC3)cc2c1C [Example 375, N-(2-methoxyethyl)-2-({1-[4-(6-methoxypyridin-3-yl)benzoyl]piperidin-4-yl}-methyl)-4-methyl-2H-indazol-5-carboxamide] | 5.8 | xxx (xxx > 100) | xxx (xxx > 100) |
| COCCNC(=O)c1ccc2nn(CC3CCN(C(=O)c4nc5ccccc5s4)CC3)cc2c1C [Example 348, 2-{[1-(benzothiazol-2-ylcarbonyl)piperidin-4-yl]methyl}-N-(2-methoxyethyl)-4-methyl-2H-indazol-5-carboxamide] | 8.88 | xxx (xxx > 100) | xxx (xxx > 100) |
| Cc1c(C(=O)NCC(F)(F)F)ccc2nn(CC3CCN(C(=O)c4ccc(Oc5ccc(C#N)cc5)cc4)CC3)cc12 [Example 306, 2-({1-[4-(4-cyanophenoxy)benzoyl]piperidin-4-yl}methyl)-4-methyl-N-(2,2,2-trifluoroethyl)-2H-indazol-5-carboxamide] | 76.6 | xxx (xxx > 100) | xxx (xxx > 100) |
| Cc1c(C(=O)NCCN2CCOCC2)ccc2nn(CC3CCN(C(=O)c4ccc(-c5ccc(F)cc5)cc4)CC3)cc12 [Example 66, 2-({1-[(4′-fluoro-biphenyl-4-yl)-carbonyl]piperidin-4-yl}methyl)-4-methyl-N-(2-morpholino-ethyl)-2H-indazol-5-carboxamide] | 321 | xx (xx: 10-100) | xx (xx: 10-100) |
| Cc1c(C(=O)NCC(F)(F)F)ccc2nn(CC3CCN(C(=O)c4ccc(Br)cc4)CC3)cc12 [Example 316, 2-{[1-(4-bromobenzoyl)piperidin-4-yl]methyl}-4-methyl-N-(2,2,2-trifluoro-ethyl)-2H-indazol-5-carboxamide] | 79 | xxx (xxx > 100) | xxx (xxx > 100) |
| COCCNC(=O)c1ccc2nn(CC3CCN(C(=O)c4ccc(-c5cccnc5)c(C)c4)CC3)cc2c1C [Example 392, N-(2-methoxyethyl)-4-methyl-2-({1-[3-methyl-4-(3-pyridyl)benzoyl]piperidin-4-yl}methyl)-2H-indazol-5-carboxamide] | 21.8 | xxx (xxx > 100) | xxx (xxx > 100) |
| Cc1c(C(=O)NCCCO)ccc2nn(CC3CCN(C(=O)c4ccc(-c5ccc(F)cc5)cc4)CC3)cc12 [Example 409, 2-({1-[(4′-fluorobiphenyl-4-yl)carbonyl]piperidin-4-yl}methyl)-N-(3-hydroxypropyl)-4-methyl-2H-indazol-5-carboxamide] | 31.8 | xxx (xxx > 100) | xxx (xxx > 100) |
| Cc1c(C(=O)NCC(F)(F)F)ccc2nn(CC3CCN(C(=O)c4ccc(N5CCOCC5)cc4)CC3)cc12 [Example 287, 4-methyl-2-{[1-(4-morpholinobenzoyl)piperidin-4-yl]methyl}-N-(2,2,2-trifluoro-ethyl)-2H-indazol-5-carboxamide] | 1050 | xx (xx: 10-100) | xx (xx: 10-100) |
| COCCNC(=O)c1cc2cn(CC3CN(C(=O)c4ccc(Cl)c(C(F)(F)F)c4)C3)nc2cc1C [Example 185, 2-({1-[4-chloro-3-(trifluoromethyl)benzoyl]azetidin-3-yl}methyl)-N-(2-methoxy-ethyl)-6-methyl-2H-indazol-5-carboxamide] | 24.8 | xxx (xxx > 100) | xxx (xxx > 100) |
| COC(C)CNC(=O)c1ccc2nn(CC3CN(C(=O)c4ccc(Cl)cc4)C3)cc2c1C (racemic) [Example 138, (+/−)-2-{[1-(4-chlorobenzoyl)azetidin-3-yl]methyl}-N-(2-methoxypropyl)-4-methyl-2H-indazol-5-carboxamide] | 160 | xxx (xxx > 100) | xxx (xxx > 100) |
| COCCNC(=O)c1ccc2nn(CC3CN(C(=O)c4cc5ccc(OC)cc5n4C)C3)cc2c1C [Example 173, N-(2-methoxyethyl)-2-({1-[(6-methoxy-1-methyl-1H-indol-2-yl)carbonyl]azetidin-3-yl}methyl)-4-methyl-2H-indazol-5-carboxamide] | 2.71 | xxx (xxx > 100) | xxx (xxx > 100) |
| COCCNC(=O)c1ccc2nn(CC3CCN(C(=O)c4ccc(OC)cc4F)CC3)cc2c1C [Example 7, 2-{[1-(2-fluoro-4-methoxybenzoyl)piperidin-4-yl]methyl}-N-(2-methoxyethyl)-4-methyl-2H-indazol-5-carboxamide] | 25.8 | xxx (xxx > 100) | xxx (xxx > 100) |
| COCCNC(=O)c1ccc2nn(CC3CCN(C(=O)c4ccc(OC(F)F)cc4)CC3)cc2c1C [Example 365, 2-({1-[4-(difluoromethoxy)benzoyl]piperidin-4-yl}methyl)-N-(2-methoxyethyl)-4-methyl-2H-indazol-5-carboxamide] | 5.3 | xxx (xxx > 100) | xxx (xxx > 100) |
| COCCNC(=O)c1ccc2nn(CC3CN(C(=O)c4ccc5cc(OC)ccc5c4)C3)cc2c1C [Example 176, N-(2-methoxyethyl)-2-{[1-(6-methoxy-2-naphthoyl)azetidin-3-yl]methyl}-4-methyl-2H-indazol-5-carboxamide] | 7.77 | xxx (xxx > 100) | xxx (xxx > 100) |
| Cc1c(C(=O)NCCOCC2CC2)ccc2nn(CC3CN(C(=O)c4ccc(Oc5ccc(F)cc5)cc4)C3)cc12 [Example 150, N-[2-(cyclopropylmethoxy)ethyl]-2-({1-[4-(4-fluorophenoxy)benzoyl]azetidin-3-yl}methyl)-4-methyl-2H-indazol-5-carboxamide] | 12.8 | xxx (xxx > 100) | xxx (xxx > 100) |
